# Results as given in PubChem BioAssay (NCI).
#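 Following 48 hours of exposure in 96-well plates, responses at five concentrations were used to interpolate endpoints linearly. GI50 marks 50% less growth. The concentration for full growth arrest is given as TGI.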
# Assays:
# Test in all cases: NCI-60 cell line screen, 48 h
# MOLT-4 leukemia = test system: MOLT-4 leukemia
# OVCAR-5 ovarian = test system: OVCAR-5 ovarian
# UACC-257 melanoma = test system: UACC-257 melanoma
# NCI-H226 lung = test system: NCI-H226 lung
# UACC-62 melanoma = test system: UACC-62 melanoma
# HL-60(TB) leukemia = test system: HL-60(TB) leukemia
# SF-268 CNS = test system: SF-268 CNS
# NCI-H23 lung = test system: NCI-H23 lung
# SK-MEL-2 melanoma = test system: SK-MEL-2 melanoma
# SF-295 CNS = test system: SF-295 CNS
# NCI-H522 lung = test system: NCI-H522 lung
# SK-MEL-5 melanoma = test system: SK-MEL-5 melanoma
# MDA-MB-435 = test system: MDA-MB-435
# SW-620 colon = test system: SW-620 colon
# OVCAR-8 ovarian = test system: OVCAR-8 ovarian
# T-47D breast = test system: T-47D breast
# BT-549 breast = test system: BT-549 breast
# SK-OV-3 ovarian = test system: SK-OV-3 ovarian
# SF-539 CNS = test system: SF-539 CNS
# LOX IMVI melanoma = test system: LOX IMVI melanoma
# MDA-MB-231 breast = test system: MDA-MB-231 breast
# RXF 393 renal = test system: RXF 393 renal
# A549 NSCLC = test system: A549 NSCLC
# HT29 colon = test system: HT29 colon
# EKVX NSCLC = test system: EKVX NSCLC
# HOP-92 NSCLC = test system: HOP-92 NSCLC
# CAKI-1 renal = test system: CAKI-1 renal
# SN12C renal = test system: SN12C renal
# KM12 colon = test system: KM12 colon
# DU-145 prostate = test system: DU-145 prostate
# TK-10 renal = test system: TK-10 renal
# CCRF-CEM leukemia = test system: CCRF-CEM leukemia
# PC-3 prostate = test system: PC-3 prostate
# SK-MEL-28 melanoma = test system: SK-MEL-28 melanoma
# IGROV1 ovarian = test system: IGROV1 ovarian
# MALME-3M melanoma = test system: MALME-3M melanoma
# HCT-15 colon = test system: HCT-15 colon
# 786-0 renal = test system: 786-0 renal
# UO-31 renal = test system: UO-31 renal
# ACHN renal = test system: ACHN renal
# OVCAR-3 ovarian = test system: OVCAR-3 ovarian
# SNB-19 CNS = test system: SNB-19 CNS
# U251 CNS = test system: U251 CNS
# HS 578T breast = test system: HS 578T breast
# NCI/ADR-RES ovarian = test system: NCI/ADR-RES ovarian
# HOP-62 NSCLC = test system: HOP-62 NSCLC
# HCC-2998 colon = test system: HCC-2998 colon
# K-562 leukemia = test system: K-562 leukemia
# NCI-H460 lung = test system: NCI-H460 lung
# A498 renal = test system: A498 renal
# OVCAR-4 ovarian = test system: OVCAR-4 ovarian
# HCT-116 colon = test system: HCT-116 colon
# RPMI-8226 leukemia = test system: RPMI-8226 leukemia
# MCF7 breast = test system: MCF7 breast
# COLO 205 colon = test system: COLO 205 colon
# M14 melanoma = test system: M14 melanoma
# SNB-75 CNS = test system: SNB-75 CNS
# SR leukemia = test system: SR leukemia
compound,measurement,setting,value
C=C(CN1CCc2ccccc2C1)c1ccc(/C=C/C(=O)Nc2ccccc2N)cc1,GI50,MOLT-4 leukemia,3.18 µM
same,TGI,MOLT-4 leukemia,> 100 µM
same,GI50,OVCAR-5 ovarian,12.8 µM
same,TGI,OVCAR-5 ovarian,> 100 µM
same,GI50,UACC-257 melanoma,1.3 µM
same,TGI,UACC-257 melanoma,28 µM
same,GI50,NCI-H226 lung,2.64 µM
same,TGI,NCI-H226 lung,25.4 µM
same,GI50,UACC-62 melanoma,4.99 µM
same,TGI,UACC-62 melanoma,22.8 µM
same,GI50,HL-60(TB) leukemia,4.28 µM
same,TGI,HL-60(TB) leukemia,76.8 µM
same,GI50,SF-268 CNS,2.44 µM
same,TGI,SF-268 CNS,55.3 µM
same,GI50,NCI-H23 lung,9.55 µM
same,TGI,NCI-H23 lung,> 100 µM
same,GI50,SK-MEL-2 melanoma,7.51 µM
same,TGI,SK-MEL-2 melanoma,> 100 µM
same,GI50,SF-295 CNS,3.09 µM
same,TGI,SF-295 CNS,40.6 µM
same,GI50,NCI-H522 lung,0.783 µM
same,TGI,NCI-H522 lung,14.7 µM
same,GI50,SK-MEL-5 melanoma,13 µM
same,TGI,SK-MEL-5 melanoma,31.4 µM
same,GI50,MDA-MB-435,4.89 µM
same,TGI,MDA-MB-435,80.7 µM
same,GI50,SW-620 colon,5.07 µM
same,TGI,SW-620 colon,> 100 µM
same,GI50,OVCAR-8 ovarian,5.86 µM
same,TGI,OVCAR-8 ovarian,> 100 µM
same,GI50,T-47D breast,10.5 µM
same,TGI,T-47D breast,> 100 µM
same,GI50,BT-549 breast,10.3 µM
same,TGI,BT-549 breast,> 100 µM
same,GI50,SK-OV-3 ovarian,66 µM
same,TGI,SK-OV-3 ovarian,> 100 µM
same,GI50,SF-539 CNS,13 µM
same,TGI,SF-539 CNS,> 100 µM
same,GI50,LOX IMVI melanoma,3.09 µM
same,TGI,LOX IMVI melanoma,16.5 µM
same,GI50,MDA-MB-231 breast,4.36 µM
same,TGI,MDA-MB-231 breast,48.3 µM
same,GI50,RXF 393 renal,12.1 µM
same,TGI,RXF 393 renal,> 100 µM
same,GI50,A549 NSCLC,1.79 µM
same,TGI,A549 NSCLC,> 100 µM
same,GI50,HT29 colon,59.9 µM
same,TGI,HT29 colon,> 100 µM
same,GI50,EKVX NSCLC,10.4 µM
same,TGI,EKVX NSCLC,> 100 µM
same,GI50,HOP-92 NSCLC,8 µM
same,TGI,HOP-92 NSCLC,52.8 µM
same,GI50,CAKI-1 renal,2.21 µM
same,TGI,CAKI-1 renal,94.5 µM
same,GI50,SN12C renal,4.49 µM
same,TGI,SN12C renal,31 µM
same,GI50,KM12 colon,0.965 µM
same,TGI,KM12 colon,> 100 µM
same,GI50,DU-145 prostate,5.98 µM
same,TGI,DU-145 prostate,> 100 µM
same,GI50,TK-10 renal,3.88 µM
same,TGI,TK-10 renal,26.9 µM
same,GI50,CCRF-CEM leukemia,1.04 µM
same,TGI,CCRF-CEM leukemia,> 100 µM
same,GI50,PC-3 prostate,4.05 µM
same,TGI,PC-3 prostate,> 100 µM
same,GI50,SK-MEL-28 melanoma,46.7 µM
same,TGI,SK-MEL-28 melanoma,> 100 µM
same,GI50,IGROV1 ovarian,4.46 µM
same,TGI,IGROV1 ovarian,> 100 µM
same,GI50,MALME-3M melanoma,0.309 µM
same,TGI,MALME-3M melanoma,8.04 µM
same,GI50,HCT-15 colon,1.69 µM
same,TGI,HCT-15 colon,62.9 µM
same,GI50,786-0 renal,3.81 µM
same,TGI,786-0 renal,24.4 µM
same,GI50,UO-31 renal,0.437 µM
same,TGI,UO-31 renal,> 100 µM
same,GI50,ACHN renal,5.4 µM
same,TGI,ACHN renal,> 100 µM
same,GI50,OVCAR-3 ovarian,5.59 µM
same,TGI,OVCAR-3 ovarian,51 µM
same,GI50,SNB-19 CNS,26.6 µM
same,TGI,SNB-19 CNS,> 100 µM
same,GI50,U251 CNS,3.42 µM
same,TGI,U251 CNS,27.8 µM
same,GI50,HS 578T breast,17.1 µM
same,TGI,HS 578T breast,> 100 µM
same,GI50,NCI/ADR-RES ovarian,4.27 µM
same,TGI,NCI/ADR-RES ovarian,> 100 µM
same,GI50,HOP-62 NSCLC,5.17 µM
same,TGI,HOP-62 NSCLC,> 100 µM
same,GI50,HCC-2998 colon,2.04 µM
same,TGI,HCC-2998 colon,34.5 µM
same,GI50,K-562 leukemia,5.49 µM
same,TGI,K-562 leukemia,> 100 µM
same,GI50,NCI-H460 lung,3.18 µM
same,TGI,NCI-H460 lung,38.1 µM
same,GI50,A498 renal,16.4 µM
same,TGI,A498 renal,36.8 µM
same,GI50,OVCAR-4 ovarian,45.4 µM
same,TGI,OVCAR-4 ovarian,> 100 µM
same,GI50,HCT-116 colon,1.59 µM
same,TGI,HCT-116 colon,5.7 µM
same,GI50,RPMI-8226 leukemia,2.92 µM
same,TGI,RPMI-8226 leukemia,13.4 µM
same,GI50,MCF7 breast,2.37 µM
same,TGI,MCF7 breast,> 100 µM
same,GI50,COLO 205 colon,32.2 µM
same,TGI,COLO 205 colon,> 100 µM
COc1cc(/C=C2\N=C(c3ccccc3)N(c3ccc(S(=O)(=O)Nc4nccs4)cc3)C2=O)ccc1O,TGI,MOLT-4 leukemia,> 100 µM
same,TGI,OVCAR-5 ovarian,> 100 µM
same,TGI,UACC-257 melanoma,> 100 µM
same,TGI,NCI-H226 lung,> 100 µM
same,TGI,UACC-62 melanoma,> 100 µM
same,TGI,HL-60(TB) leukemia,> 100 µM
same,TGI,SF-268 CNS,> 100 µM
same,TGI,NCI-H23 lung,> 100 µM
same,TGI,SK-MEL-2 melanoma,> 100 µM
same,TGI,SF-295 CNS,> 100 µM
same,TGI,NCI-H522 lung,> 100 µM
same,TGI,SK-MEL-5 melanoma,> 100 µM
same,TGI,MDA-MB-435,> 100 µM
same,TGI,SW-620 colon,> 100 µM
same,TGI,OVCAR-8 ovarian,> 100 µM
same,TGI,T-47D breast,> 100 µM
same,TGI,BT-549 breast,> 100 µM
same,TGI,SK-OV-3 ovarian,> 100 µM
same,TGI,SF-539 CNS,> 100 µM
same,TGI,LOX IMVI melanoma,> 100 µM
same,TGI,RXF 393 renal,> 100 µM
same,TGI,A549 NSCLC,> 100 µM
same,TGI,HT29 colon,> 100 µM
same,TGI,EKVX NSCLC,> 100 µM
same,TGI,HOP-92 NSCLC,> 100 µM
same,TGI,CAKI-1 renal,> 100 µM
same,TGI,SN12C renal,> 100 µM
same,TGI,KM12 colon,> 100 µM
same,TGI,DU-145 prostate,> 100 µM
same,TGI,TK-10 renal,> 100 µM
same,TGI,CCRF-CEM leukemia,> 100 µM
same,TGI,M14 melanoma,> 100 µM
same,TGI,PC-3 prostate,> 100 µM
same,TGI,IGROV1 ovarian,> 100 µM
same,TGI,MALME-3M melanoma,> 100 µM
same,TGI,HCT-15 colon,> 100 µM
same,TGI,SNB-75 CNS,> 100 µM
same,TGI,786-0 renal,> 100 µM
same,TGI,UO-31 renal,> 100 µM
same,TGI,ACHN renal,> 100 µM
same,TGI,SR leukemia,> 100 µM
same,TGI,OVCAR-3 ovarian,> 100 µM
same,TGI,SNB-19 CNS,> 100 µM
same,TGI,U251 CNS,> 100 µM
same,TGI,HS 578T breast,> 100 µM
same,TGI,NCI/ADR-RES ovarian,> 100 µM
same,TGI,HOP-62 NSCLC,> 100 µM
same,TGI,K-562 leukemia,> 100 µM
same,TGI,NCI-H460 lung,> 100 µM
same,TGI,A498 renal,> 100 µM
same,TGI,OVCAR-4 ovarian,> 100 µM
same,TGI,HCT-116 colon,> 100 µM
same,TGI,RPMI-8226 leukemia,> 100 µM
same,TGI,MCF7 breast,> 100 µM
same,TGI,COLO 205 colon,> 100 µM
